Measurements taken from patent US20250296953A1, “3,4-THIAZOLO-STEROIDS AND METHODS OF MAKING AND USING THE SAME” (Arkansas State University - Jonesboro, priority 2018, published 2025).
Like-named read-outs stand apart in the source and are kept apart here.

Assays:
[1] = system: 60 different human tumor cell lines; assay: NCI Development Therapeutics Program 60 cell line screen, one dose; type: cell-based
NCI-H522 (NSCLC) = assay: NCI 60 one dose screen; type: cell-based, human; conditions: Non-small Cell Lung Cancer
RPMI-8226 = assay: NCI 60 five dose screen
[2] = system: 60 different human tumor cell lines; assay: cells
glioblastoma (SF-295) = assay: NCI 60 five dose screen

With `C[C@]12CC[C@H]3[C@@H](CC=C4c5sc(-c6ccc(O)cc6)nc5CC[C@@]43C)[C@@H]1CC[C@@H]2O` [III.5, (1S,2R,13R,14S,17S,18S)-7-(4-hydroxyphenyl)-2,18-dimethyl-8-thia-6-azapentacyclo[11.7.0.02,10.05,9.014,18]icosa-5(9),6,10-trien-17-ol] the “Growth Percent” value ([1]; Breast Cancer, BT-549) was 59.26%, the “Growth Percent” value ([1]; Breast Cancer, HS 578T) was 4.16% and the “Growth Percent” value ([1]; Breast Cancer, MCF7) was 42.59%. The “Growth Percent” value ([1]; Breast Cancer, MDA-MB-231/ATCC) was 56.24%, the “Growth Percent” value ([1]; Breast Cancer, MDA-MB-468) was 81.03% and the “Growth Percent” value ([1]; Breast Cancer, T-47D) was 67.74%. For the same compound, the “Growth Percent” value ([1]; CNS Cancer, SF-268) was 48.55%, the “Growth Percent” value ([1]; CNS Cancer, SNB-19) was 71.05% and the “Growth Percent” value ([1]; CNS Cancer, SNB-75) was 26.42%. The “Growth Percent” value ([1]; CNS Cancer, U251) was 20.08%, the “Growth Percent” value ([1]; Colon Cancer, COLO 205) was 77.66% and the “Growth Percent” value ([1]; Colon Cancer, HCC-2998) was 95.33%. The “Growth Percent” value ([1]; Colon Cancer, HCT-116) was 43.80%, the “Growth Percent” value ([1]; Colon Cancer, HT29) was 19.90% and the “Growth Percent” value ([1]; Colon Cancer, KM12) was 60.79%. For the same compound, the “Growth Percent” value ([1]; Colon Cancer, SW-620) was 71.71%, the “Growth Percent” value ([1]; Leukemia, CCRF-CEM) was 13.10% and the “Growth Percent” value ([1]; Leukemia, HL-60(TB)) was 22.65%. The “Growth Percent” value ([1]; Leukemia, K-562) was 13.87%, the “Growth Percent” value ([1]; Leukemia, MOLT-4) was −23.23% and the “Growth Percent” value ([1]; Leukemia, RPMI-8226) was −36.92%. For the same compound, the “Growth Percent” value ([1]; Leukemia, SR) was 5.95%, the “Growth Percent” value ([1]; Melanoma, LOX IMVI) was 25.37% and the “Growth Percent” value ([1]; Melanoma, M14) was 60.54%. For the same compound, the “Growth Percent” value ([1]; Melanoma, MALME-3M) was 72.42%, the “Growth Percent” value ([1]; Melanoma, MDA-MB-435) was 91.96% and the “Growth Percent” value ([1]; Melanoma, SK-MEL-2) was 44.94%. For the same compound, the “Growth Percent” value ([1]; Melanoma, SK-MEL-5) was 71.98%, the “Growth Percent” value ([1]; Melanoma, SK-MEL-28) was 53.31% and the “Growth Percent” value ([1]; Melanoma, UACC-62) was 28.69%. For the same compound, the “Growth Percent” value ([1]; Melanoma, UACC-257) was 66.19%, the “Growth Percent” value ([1]; Non-small Cell Lung Cancer, A549/ATCC) was 52.15% and the “Growth Percent” value ([1]; Non-small Cell Lung Cancer, EKVX) was 63.56%. For the same compound, the “Growth Percent” value ([1]; Non-small Cell Lung Cancer, HOP-62) was 46.75%, the “Growth Percent” value ([1]; Non-small Cell Lung Cancer, NCI-H23) was 74.72% and the “Growth Percent” value ([1]; Non-small Cell Lung Cancer, NCI-H226) was 109.87%. The “Growth Percent” value ([1]; Non-small Cell Lung Cancer, NCI-H322M) was 92.82%, the “Growth Percent” value ([1]; Non-small Cell Lung Cancer, NCI-H460) was 41.91% and the “Growth Percent” value ([1]; Ovarian Cancer, IGROV1) was 80.66%. The “Growth Percent” value ([1]; Ovarian Cancer, NCI/ADR-RES) was 76.79%, the “Growth Percent” value ([1]; Ovarian Cancer, OVCAR-3) was 38.63% and the “Growth Percent” value ([1]; Ovarian Cancer, OVCAR-4) was 81.75%. For the same compound, the “Growth Percent” value ([1]; Ovarian Cancer, OVCAR-5) was 106.38%, the “Growth Percent” value ([1]; Ovarian Cancer, OVCAR-8) was 74.18% and the “Growth Percent” value ([1]; Ovarian Cancer, SK-OV-3) was 38.63%. The “Growth Percent” value ([1]; Prostate Cancer, DU-145) was 63.77%, the “Growth Percent” value ([1]; Prostate Cancer, PC-3) was 49.49% and the “Growth Percent” value ([1]; Renal Cancer, 786-0) was 8.35%. The “Growth Percent” value ([1]; Renal Cancer, A498) was 49.45%, the “Growth Percent” value ([1]; Renal Cancer, ACHN) was 46.04% and the “Growth Percent” value ([1]; Renal Cancer, CAKI-1) was 61.32%. The “Growth Percent” value ([1]; Renal Cancer, RXF 393) was −46.32%, the “Growth Percent” value ([1]; Renal Cancer, SN12C) was 96.68% and the “Growth Percent” value ([1]; Renal Cancer, TK-10) was 89.27%. The “Growth Percent” value ([1]; Renal Cancer, UO-31) was 9.33%, the “Growth Percent” value (NCI-H522 (NSCLC)) was 41.21% and the CC50 (RPMI-8226; Homo sapiens, RPMI-8226, read-out: LC50) was over 100 µM. The TGI (RPMI-8226; RPMI-8226 (Leukemia), five dose) was 2.50E−6, the GI50 ([2]; 786-0) was 0.423 µM and the CC50 ([2]; 786-0, read-out: LC50) was 21.2 µM. It also gave a GI50 ([2]; A498) of 3.51 µM, a CC50 ([2]; A498, read-out: LC50) of over 100 µM and a GI50 ([2]; A549) of 5.95 µM. For the same compound, the CC50 ([2]; A549, read-out: LC50) was over 100 µM, the GI50 ([2]; ACHN) was 7.55 µM and the CC50 ([2]; ACHN, read-out: LC50) was over 100 µM. The GI50 ([2]; BT-549) was 1.14 µM, the CC50 ([2]; BT-549, read-out: LC50) was over 100 µM and the GI50 ([2]; CAKI-1) was 4.12 µM. The CC50 ([2]; CAKI-1, read-out: LC50) was over 100 µM, the GI50 ([2]; CCRF-CEM) was 2.05 µM and the CC50 ([2]; CCRF-CEM, read-out: LC50) was over 100 µM. It also gave a GI50 ([2]; COLO 205) of 9.14 µM, a CC50 ([2]; COLO 205, read-out: LC50) of over 100 µM and a GI50 ([2]; DU-145) of 9.54 µM. For the same compound, the CC50 ([2]; DU-145, read-out: LC50) was over 100 µM, the GI50 ([2]; EKVX) was 7.29 µM and the CC50 ([2]; EKVX, read-out: LC50) was over 100 µM. For the same compound, the GI50 ([2]; HCC 2998) was 31.9 µM, the CC50 ([2]; HCC 2998, read-out: LC50) was over 100 µM and the GI50 ([2]; HCT-15) was 2.43 µM. It also gave a CC50 ([2]; HCT-15, read-out: LC50) of over 100 µM, a GI50 ([2]; HCT-116) of 2.37 µM and a CC50 ([2]; HCT-116, read-out: LC50) of over 100 µM. The GI50 ([2]; HL-60) was 4.08 µM, the CC50 ([2]; HL-60, read-out: LC50) was over 100 µM and the GI50 ([2]; HOP-62) was 5.25 µM. It also gave a CC50 ([2]; HOP-62, read-out: LC50) of over 100 µM, a GI50 ([2]; HT-29) of 3.13 µM and a CC50 ([2]; HT-29, read-out: LC50) of over 100 µM. The GI50 ([2]; Hs-578T) was 1.59 µM, the CC50 ([2]; Hs-578T, read-out: LC50) was over 100 µM and the GI50 ([2]; IGROV-1) was 11.1 µM. For the same compound, the CC50 ([2]; IGROV-1, read-out: LC50) was over 100 µM, the GI50 ([2]; K562) was 3.48 µM and the CC50 ([2]; K562, read-out: LC50) was over 100 µM. The GI50 ([2]; KM12) was 7.24 µM, the CC50 ([2]; KM12, read-out: LC50) was over 100 µM and the GI50 ([2]; LOX IMVI) was 2.67 µM. It also gave a CC50 ([2]; LOX IMVI, read-out: LC50) of over 100 µM, a GI50 ([2]; M14) of 2.86 µM and a CC50 ([2]; M14, read-out: LC50) of over 100 µM. The GI50 ([2]; MCF7) was 3.34 µM, the CC50 ([2]; MCF7, read-out: LC50) was over 100 µM and the GI50 ([2]; MDA-MB-231) was 6.98 µM. For the same compound, the CC50 ([2]; MDA-MB-231, read-out: LC50) was over 100 µM, the GI50 ([2]; MDA-MB-435) was 16.4 µM and the CC50 ([2]; MDA-MB-435, read-out: LC50) was over 100 µM. The GI50 ([2]; MDA-MB-468) was 5.13 µM, the CC50 ([2]; MDA-MB-468, read-out: LC50) was over 100 µM and the GI50 ([2]; MOLT-4) was 1.93 µM. The CC50 ([2]; MOLT-4, read-out: LC50) was over 100 µM, the GI50 ([2]; Malme-3M) was 3.76 µM and the CC50 ([2]; Malme-3M, read-out: LC50) was over 100 µM. For the same compound, the GI50 ([2]; NCI-H23) was 14 µM, the CC50 ([2]; NCI-H23, read-out: LC50) was over 100 µM and the GI50 ([2]; NCI-H226) was 27.4 µM. For the same compound, the CC50 ([2]; NCI-H226, read-out: LC50) was over 100 µM, the GI50 ([2]; NCI-H322M) was 31.1 µM and the CC50 ([2]; NCI-H322M, read-out: LC50) was over 100 µM. The GI50 ([2]; NCI-H460) was 4.94 µM, the CC50 ([2]; NCI-H460, read-out: LC50) was over 100 µM and the GI50 ([2]; NCI-H522) was 22.6 µM. The CC50 ([2]; NCI-H522, read-out: LC50) was over 100 µM, the GI50 ([2]; NCI/ADR-RES) was 6.77 µM and the CC50 ([2]; NCI/ADR-RES, read-out: LC50) was over 100 µM. It also gave a GI50 ([2]; OVCAR-3) of 8.67 µM, a CC50 ([2]; OVCAR-3, read-out: LC50) of over 100 µM and a GI50 ([2]; OVCAR-4) of 7.24 µM. The CC50 ([2]; OVCAR-4, read-out: LC50) was over 100 µM, the GI50 ([2]; OVCAR-5) was 13.3 µM and the CC50 ([2]; OVCAR-5, read-out: LC50) was over 100 µM. The GI50 ([2]; OVCAR-8) was 40.9 µM, the CC50 ([2]; OVCAR-8, read-out: LC50) was over 100 µM and the GI50 ([2]; RXF 393) was 0.377 µM. The CC50 ([2]; RXF 393, read-out: LC50) was 8.58 µM, the GI50 ([2]; SF-268) was 5.32 µM and the CC50 ([2]; SF-268, read-out: LC50) was over 100 µM. The GI50 ([2]; SK-MEL-2) was 4.42 µM, the CC50 ([2]; SK-MEL-2, read-out: LC50) was over 100 µM and the GI50 ([2]; SK-MEL-5) was 3.15 µM. It also gave a CC50 ([2]; SK-MEL-5, read-out: LC50) of 48.5 µM, a GI50 ([2]; SK-MEL-28) of 3.05 µM and a CC50 ([2]; SK-MEL-28, read-out: LC50) of over 100 µM. The GI50 ([2]; SK-OV-3) was 19 µM, the CC50 ([2]; SK-OV-3, read-out: LC50) was over 100 µM and the CC50 ([2]; SN12C, read-out: LC50) was over 100 µM. It also gave a GI50 ([2]; SNB-19) of 7.95 µM, a CC50 ([2]; SNB-19, read-out: LC50) of over 100 µM and a GI50 ([2]; SNB-75) of 1.84 µM. For the same compound, the CC50 ([2]; SNB-75, read-out: LC50) was over 100 µM, the GI50 ([2]; SW-620) was 8.4 µM and the CC50 ([2]; SW-620, read-out: LC50) was over 100 µM. For the same compound, the GI50 ([2]; T47D) was 10.3 µM, the CC50 ([2]; T47D, read-out: LC50) was over 100 µM and the GI50 ([2]; TK-10) was over 100 µM. For the same compound, the CC50 ([2]; TK-10, read-out: LC50) was over 100 µM, the GI50 ([2]; U-251) was 2.23 µM and the CC50 ([2]; U-251, read-out: LC50) was over 100 µM. The GI50 ([2]; UACC-62) was 2.43 µM, the CC50 ([2]; UACC-62, read-out: LC50) was over 100 µM and the GI50 ([2]; UACC-257) was 11.9 µM. It also gave a CC50 ([2]; UACC-257, read-out: LC50) of over 100 µM, a GI50 ([2]; UO-31) of 2.48 µM and a CC50 ([2]; UO-31, read-out: LC50) of over 100 µM. For the same compound, the GI50 (glioblastoma (SF-295); Homo sapiens, SF-295) was 0.413 µM, the CC50 (glioblastoma (SF-295); Homo sapiens, SF-295, read-out: LC50) was 8.2 µM and the TGI (glioblastoma (SF-295); SF-295 (CNS Cancer), five dose) was 2.03E−6.
